Test results from PubChem BioAssay AID1996.
≈ marks a conversion by molar mass, not a printed value.

Settings: buffer; pH 7.4; 200.0 µM

S=C(c1ccc2c(c1)OCO2)N1CCOCC1 and COc1cc(C(=O)OC(C)C(=O)N2CCCC2)cc2c1OCCO2 (stereo not given) cannot be ordered by solubility kinetic: > 37.7 µg/mL for the first, > 50.3 µg/mL for the second.

Compared with CSc1ccccc1NC(=O)CSc1cccc[n+]1[O-], O=C(COc1ccc(Cl)cc1)Nc1ccccc1Cl is lower in solubility kinetic: > 46 µg/mL for the first, < 0.6 µg/mL for the second.

First: Cc1ccc(C2(C)NC(=O)N(CC(=O)N3CC(=O)Nc4ccccc43)C2=O)cc1 (stereo not given)
Second: Cc1cccc(NS(=O)(=O)c2ccc3c(c2)NC(=O)CC(=O)N3)c1
The solubility kinetic of the first is lower: 0.4 µg/mL (≈ 1.02 µM) for the first, > 51.8 µg/mL for the second.

Compared with CN(C)c1cccc2c(S(=O)(=O)N3CCCC3)cccc12, O=C(Nc1cc(S(=O)(=O)N2CCCC2)ccc1Cl)c1ccncc1 is higher in solubility kinetic: 34 µg/mL (≈ 112 µM) for the first, > 54.9 µg/mL for the second.

First: CNC(=O)CSc1nnc(-c2ccco2)n1-c1cccc(C)c1C
Second: COc1ccc(OC)c(Nc2nc(NCc3ccco3)nc(N)c2[N+](=O)[O-])c1
The solubility kinetic of the first is higher: > 51.4 µg/mL for the first, < 0.1 µg/mL for the second.

First: COc1ccc(CCC(=O)NCc2ccccc2OC)cc1
Second: COc1ccc(NC(=O)CN(C)C(=O)CCc2ccccc2)cc1
The solubility kinetic of the first is higher: > 44.9 µg/mL for the first, 40.7 µg/mL (≈ 125 µM) for the second.

First: COc1ccc(-n2c(N)cc(=O)[nH]c2=O)cc1
Second: C#CCn1cccc(C(=O)Nc2ccc(OC)cc2)c1=O
The solubility kinetic of the first is higher: > 35 µg/mL for the first, 6.3 µg/mL (≈ 22.3 µM) for the second.

Compared with Cn1c(=O)c2[nH]c(C3CCCC3)nc2n(C)c1=O, O=C1Nc2cc(C(F)(F)F)ccc2N2CCCCC12 (stereo not given) is lower in solubility kinetic: > 37.2 µg/mL for the first, 7.1 µg/mL (≈ 26.3 µM) for the second.

Compared with COc1ccccc1CNC(c1ccccc1)c1ccccc1, COc1ccc(NCC(=O)N/N=C/C(C)c2ccccc2)cc1 (stereo not given) is higher in solubility kinetic: 3.3 µg/mL (≈ 10.9 µM) for the first, > 46.7 µg/mL for the second.

CCN(CC)CC(=O)NCC1(c2ccccc2)CCCC1 and CC(=O)NC(CC(=O)N1CCCC1)c1ccccc1 (stereo not given) cannot be ordered by solubility kinetic: 40.9 µg/mL (≈ 142 µM) for the first, > 39.1 µg/mL for the second.

First: COC(=O)C1CCCN1S(=O)(=O)c1ccc([N+](=O)[O-])cc1 (stereo not given)
Second: CC1(C)CC(=O)c2ccc(OCc3ccc([N+](=O)[O-])cc3)cc2O1
The solubility kinetic of the first is higher: > 47.1 µg/mL for the first, < 0.7 µg/mL for the second.

First: COc1ccccc1CNC(=O)C(=O)Nc1nccs1
Second: N#CCC(=O)Nc1ccc(C(=O)NCc2ccccn2)cc1
The solubility kinetic of the first is lower: 6 µg/mL (≈ 20.6 µM) for the first, > 44.1 µg/mL for the second.

Cc1cc(C)c(OCCNCc2ccccc2)c(C)c1.O=C(O)C(=O)O and O=C(NCCOC(=O)c1ccccc1)c1ccccc1 cannot be ordered by solubility kinetic: 42.5 µg/mL for the first, > 40.4 µg/mL for the second.

O=C(COc1ccc(Cl)cc1)Nc1ccc2c(c1)OCO2 and COc1ccc(NC(=O)COc2ccc(Br)cc2)c(OC)c1 cannot be ordered by solubility kinetic: < 0.7 µg/mL for the first, < 0.8 µg/mL for the second.

O=c1cc(C(F)(F)F)[nH]c2ccc(OC(F)(F)F)cc12 and COc1ccc2cc(C(=O)NCCCN3CCCC3=O)[nH]c2c1 cannot be ordered by solubility kinetic: > 44.6 µg/mL for the first, > 47.3 µg/mL for the second.

CCOc1ccc(N2C(=O)CC(Sc3nc(O)c(CC)c(=O)[nH]3)C2=O)cc1 (stereo not given) and CC(=O)C1=C(O)CC(C)(C)CC1=NCc1nc2ccccc2[nH]1 cannot be ordered by solubility kinetic: > 58.4 µg/mL for the first, > 46.7 µg/mL for the second.

CCc1noc(C)c1C(=O)Nc1nc(-c2cccs2)cs1 and CCc1noc(C)c1C(=O)OCC(=O)NC(=O)c1ccccc1OC are within 1.5-fold of each other in solubility kinetic: 19.3 µg/mL (≈ 60.4 µM) for the first, 18.6 µg/mL (≈ 53.7 µM) for the second.

Compared with Cc1ccc(NC(=O)NC2CCCCCCC2)cc1, COc1ccc(CC(=O)NC2CCCCCC2)c(OC)c1 is higher in solubility kinetic: < 0.3 µg/mL for the first, 37.6 µg/mL (≈ 129 µM) for the second.

First: Nc1ccc(C(=O)Nc2ccccc2N)cc1
Second: COC(=O)c1ccccc1NC(=O)c1ccc(F)cc1
The solubility kinetic of the first is higher: > 34.1 µg/mL for the first, < 0.6 µg/mL for the second.

Going from O=C(NCc1csc(-c2cccs2)n1)Nc1ccc(C(F)(F)F)cc1 to CC(=O)c1ccc(NC(=O)Cc2cccs2)cc1, the solubility kinetic rises from < 0.3 µg/mL to 37.2 µg/mL (≈ 143 µM).

CCOC(=O)c1sc(=NC(=O)C2CC2)n(C)c1C and CCOC(=O)c1cnc(SCC#N)nc1N cannot be ordered by solubility kinetic: > 40.2 µg/mL for the first, > 35.7 µg/mL for the second.

Compared with C=CCSc1nsc(NC(=O)Nc2cccc(C(C)=O)c2)n1, Cc1cccc(C(=O)Nc2ccc3ccccc3c2)c1 is lower in solubility kinetic: 1.9 µg/mL (≈ 5.68 µM) for the first, < 0.6 µg/mL for the second.

Compared with S=C(Nc1ccc(Oc2ccccc2)cc1)Nc1cccnc1, Fc1ccccc1Oc1nc(-c2ccncc2)nc2ccccc12 is lower in solubility kinetic: 30 µg/mL (≈ 93.3 µM) for the first, < 0.2 µg/mL for the second.

N#CC1(NC(=O)CN2C(=O)NC(Cc3c[nH]c4ccccc34)C2=O)CCCCC1 (stereo not given) and CC1CCCCC1NC(=O)C1CC(=O)N(Cc2ccccc2)C1 (stereo not given) cannot be ordered by solubility kinetic: > 59 µg/mL for the first, > 47.2 µg/mL for the second.

Cc1c(F)cccc1NC(=O)CCCCCC1NC(=O)NC1C (stereo not given) and COc1ccccc1NS(=O)(=O)c1cccc2nsnc12 are within 1.5-fold of each other in solubility kinetic: 46.7 µg/mL (≈ 145 µM) for the first, 35 µg/mL (≈ 109 µM) for the second.

First: CN(C)C(=O)CSc1nc2cc(S(=O)(=O)N3CCOCC3)ccc2o1
Second: CCN1C(=O)/C(=C2\SC(N3CCOCC3)=NC2=O)c2ccccc21
The solubility kinetic of the first is higher: > 57.8 µg/mL for the first, 0.9 µg/mL (≈ 2.62 µM) for the second.

First: N/C(=N\OC(=O)/C=C/c1ccccc1Cl)c1cccnc1
Second: CN(C)c1cccc(C(=O)Nc2ccc(S(=O)(=O)Nc3nccs3)cc2)c1
The solubility kinetic of the first is lower: 14.9 µg/mL (≈ 49.4 µM) for the first, > 60.4 µg/mL for the second.

COC(=O)C(CC(=O)O)NCc1ccco1 (stereo not given) and O=C(NCCCn1ccnc1)c1cc(C(=O)C2CCCCC2)c[nH]1 cannot be ordered by solubility kinetic: > 34.1 µg/mL for the first, 49 µg/mL (≈ 149 µM) for the second.

Compared with CC1CN(CC(O)COC2CCC(C(C)(C)C)CC2)CC(C)O1.Cl (stereo not given), Cn1ncc(Cl)c1C(=O)Nc1ccc(CN2CCCCC2)cc1 is higher in solubility kinetic: 48.8 µg/mL for the first, > 49.9 µg/mL for the second.

CS(=O)(=O)N1CCN=C1SCc1cccc(F)c1 and Clc1ccc(CN2CCN(c3ncccn3)CC2)cc1 are within 1.5-fold of each other in solubility kinetic: 42.6 µg/mL (≈ 148 µM) for the first, 29.6 µg/mL (≈ 102 µM) for the second.
